By IC50 is commonly meant the concentration at which inhibition is half-maximal. Read a high IC50 as a need for much substance.

In the Kinase Knowledgebase extract (Sharma et al. 2016) one finds IC50 data, which are given here for 38 compounds.

The assay concerns the target CDK2 (UniProt P24941). The assay can be described thus: Enzyme Assay.

Take `CC(C)C(=O)N1CCn2cc(C3=C(c4cnn5ccccc45)C(=O)NC3=O)c3cccc(c32)C1`: the IC50 worked out at 1.63 µM.

In turn, `O=C1NC(=O)C(c2cnc3ncccn23)=C1c1cn2c3c(cccc13)CNCC2` gave an IC50 of 8.76 µM. `O=C1NC(=O)C(c2cnc3ccncn23)=C1c1cn2c3c(cccc13)CNCC2` returned an IC50 of 7.59 µM. `O=C1NC(=O)C(c2cnc3ccccn23)=C1c1cn2c3c(cccc13)CN(C(=O)C1CCOCC1)CC2` came in with an IC50 of 5.5 µM. Consider `Cn1ccc2c(C3=C(c4cn5c6c(cccc46)CNCC5)C(=O)NC3=O)cccc21`, for which the IC50 stood at 0.363 µM. For the compound `O=C1NC(=O)C(c2cnc3ccncn23)=C1c1cn2c3c(cccc13)CN(C(=O)N1CCOCC1)CC2`, the half-inhibitory concentration (IC50) is greater than 20 µM. With `CCC(=O)N1CCn2cc(C3=C(c4cncc5ccoc45)C(=O)NC3=O)c3cccc(c32)C1`, the IC50 stood at 0.013 µM.

For `O=C1NC(=O)C(c2cncc3ccoc23)=C1c1cn2c3c(cccc13)CNCC2`, the IC50 was determined as 0.0064 µM. Take `CN(C)C(=O)N1CCn2cc(C3=C(c4cccc5c4OCO5)C(=O)NC3=O)c3cccc(c32)C1`: the IC50 was 0.445 µM.

In turn, `O=C1NC(=O)C(c2cccc3ccsc23)=C1c1cn2c3c(cccc13)CNCC2` registered an IC50 of 0.09 µM. On to `O=C1NC(=O)C(c2cnn3ccccc23)=C1c1cn2c3c(cccc13)CN(C(=O)N1CCOCC1)CC2`, for which the IC50 amounted to 3.03 µM. As for `O=C1NC(=O)C(c2cnc3cccnn23)=C1c1cn2c3c(cccc13)CNCC2`, the IC50 was found to be 0.0672 µM. Consider `O=C1NC(=O)C(c2cnc3cccnn23)=C1c1cn2c3c(cccc13)CN(C(=O)N1CCCCC1)CC2`, for which the IC50 came out at 0.434 µM.

As to `CN(C)C(=O)N1CCn2cc(C3=C(c4cccc5ccoc45)C(=O)NC3=O)c3cccc(c32)C1`, the half-inhibitory concentration (IC50) is 0.0675 µM. Turning to `CC(C)C(=O)N1CCn2cc(C3=C(c4cnc5ccccn45)C(=O)NC3=O)c3cccc(c32)C1`, the IC50 was 3.56 µM. Compound `O=C1NC(=O)C(c2cnc3ncccn23)=C1c1cn2c3c(cccc13)CN(C(=O)N1CCOCC1)CC2` displayed an IC50 greater than 20.1 µM.

In turn, `O=C1NC(=O)C(c2cnc3cnccn23)=C1c1cn2c3c(cccc13)CNCC2` came in with an IC50 of 5.58 µM. Consider `O=C1NC(=O)C(c2cnc3ncccn23)=C1c1cn2c3c(cccc13)CN(C(=O)N1CCCCC1)CC2`, for which the IC50 is greater than 19.9 µM. Then `O=C1NC(=O)C(c2cnn3ccccc23)=C1c1cn2c3c(cccc13)CNCC2`, with 0.75 µM; and `CC(=O)N1CCn2cc(C3=C(c4cccc5ccsc45)C(=O)NC3=O)c3cccc(c32)C1`, with 0.076 µM. Compound `O=C1NC(=O)C(c2cn3c4c(cccc24)CNCC3)=C1c1cccc2c1OCO2` displayed an IC50 of 0.091 µM. On to `O=C1NC(=O)C(c2cn3c4c(cccc24)CNCC3)=C1c1ccc2c(c1)OCO2`, for which the IC50 came out at 1.13 µM. Regarding `O=C1NC(=O)C(c2cn3c4c(cccc24)CNCC3)=C1c1cccc2c1ccn2CCCO`, the IC50 was found to be 0.297 µM. Under `O=C1NC(=O)C(c2cncc3ccoc23)=C1c1cn2c3c(cccc13)CN(C(=O)N1CCOCC1)CC2` stands 0.0392 µM; under `CN(C)C(=O)N1CCn2cc(C3=C(c4cnn5ccccc45)C(=O)NC3=O)c3cccc(c32)C1`, 2.2 µM; under `CC(=O)N1CCn2cc(C3=C(c4cncc5ccoc45)C(=O)NC3=O)c3cccc(c32)C1`, 0.0081 µM.

Consider `CC(=O)N1CCn2cc(C3=C(c4cccc5c4OCO5)C(=O)NC3=O)c3cccc(c32)C1`, for which the IC50 came to 0.06 µM. Then `O=C1NC(=O)C(c2cnc3cnccn23)=C1c1cn2c3c(cccc13)CN(C(=O)N1CCCCC1)CC2`, with greater than 19.9 µM; and `O=C1NC(=O)C(c2cn3c4c(cccc24)CNCC3)=C1c1cccc2c1OCC2`, with 0.033 µM; and `O=C1NC(=O)C(c2cnc3cnccn23)=C1c1cn2c3c(cccc13)CN(C(=O)N1CCOCC1)CC2`, with greater than 20.2 µM.

On to `O=C1NC(=O)C(c2cncc3ccoc23)=C1c1cn2c3c(cccc13)CN(C(=O)N1CCCCC1)CC2`, for which the IC50 stood at 0.0357 µM. On to `CC(=O)N1CCn2cc(C3=C(c4cccc5c4OCC5)C(=O)NC3=O)c3cccc(c32)C1`, for which the IC50 is 0.0176 µM.

In the case of `CC(=O)N1CCn2cc(C3=C(c4cccc5ccoc45)C(=O)NC3=O)c3cccc(c32)C1`, the IC50 is 0.0105 µM. Turning to `CC(=O)N1CCn2cc(C3=C(c4cnc5ccccn45)C(=O)NC3=O)c3cccc(c32)C1`, the IC50 is 0.629 µM. Regarding `O=C1NC(=O)C(c2cn3c4c(cccc24)CNCC3)=C1c1cccc2occc12`, the 50% inhibitory concentration (IC50) came to 0.205 µM. Take `CN(C)C(=O)N1CCn2cc(C3=C(c4cncc5ccoc45)C(=O)NC3=O)c3cccc(c32)C1`: the IC50 is 0.0156 µM. With `O=C1NC(=O)C(c2cnc3ccccn23)=C1c1cn2c3c(cccc13)CNCC2`, the concentration for half-maximal inhibition (IC50) was found to be 0.756 µM. In turn, `O=C1NC(=O)C(c2cccc3ccoc23)=C1c1cn2c3c(cccc13)CNCC2` came in with an IC50 of 0.0102 µM.
